By melting point is commonly meant the temperature, or range, at which the solid turns liquid. Regarding `O=S(=O)(c1ccccn1)c1c[nH]c2cc(N3CCNCC3)ccc12`, the melting point fell in the range of 246.7 to 247.2 °C.

The molecule `Cn1cc(S(=O)(=O)c2cccc(Cl)c2Cl)c2cc(N3CCNCC3)ccc21` [compound 409, 3-(2,3-dichloro-benzenesulfonyl)-1-methyl-5-piperazin-1-yl-1H-indole] showed a melting point of 198 to 203 °C.

On to `Cn1cc(S(=O)(=O)c2cccc(Cl)c2)c2cc(N3CCNCC3)ccc21` [compound 415, 3-(3-chloro-benzenesulfonyl)-1-methyl-5-piperazin-1-yl-1H-indole], for which the melting point was 185.5 to 188.5 °C.

`CN1CCN(c2cccc3c(S(=O)(=O)c4cc(Cl)cc(Cl)c4)c[nH]c23)CC1` [compound 507, 3-(3,5-dichloro-benzenesulfonyl)-7-(4-methyl-piperazin-1-yl)-1H-indole] showed a melting point of 237.1 to 241.5 °C.

Take `Cn1cc(S(=O)(=O)c2ccccc2)c2cc(N3CCNCC3)ccc21` [compound 403, 3-benzenesulfonyl-1-methyl-5-piperazin-1-yl-1H-indole]: the melting point was 239 to 240 °C (dec.).

Turning to `O=S(=O)(c1ccccc1Cl)c1c[nH]c2ccc(N3CCNCC3)cc12` [compound 206, 3-(2-chloro-benzenesulfonyl)-5-piperazin-1-yl-1H-indole], the melting point was > 300 °C.

In turn, `Cn1cc(S(=O)(=O)c2ccc(F)cc2)c2cc(N3CCNCC3)ccc21` [compound 413, 3-(4-fluoro-benzenesulfonyl)-1-methyl-5-piperazin-1-yl-1H-indole] yielded a melting point of 195 to 207 °C.

The molecule `CN1CCN(c2cccc3c(S(=O)(=O)c4ccccc4Cl)c[nH]c23)CC1` [compound 504, 3-(2-chloro-benzenesulfonyl)-7-(4-methyl-piperazin-1-yl)-1H-indole] had a melting point of 168.5 to 175.9 °C.

Source of the values: patent US6787535B2, “Indole derivatives with 5HT6 receptor affinity” (Syntex (U.S.A.) LLC, priority 2001, dated 2004).
